Entries after “also recorded” stand apart in the source; their conditions may differ. Where two headings read alike, the source gives them in different places.
How the values were obtained:
[1] = tested on: sphingomyelin (HL-60 nuclei-free supernate); test: Sphingomyelin content in HL-60 cell-free system; assay type: biochemical, human
Procedure: (§1) HL-60 cells were grown in RPMI 1640 medium supplemented with 10% bovine calf serum and amino acids (4). To measure sphingomyelin, cells were resuspended (1×10^6 ml^-1), labeled for 48 hours in medium with [^3 H]choline (1 μCi ml^-1) (57), in serum-free medium containing bovine insulin (5 μg ml^-1) and human transferrin (5 μg ml^-1). After 3 hours, cells were resuspended (150×10^6 ml^-1) in homogenization buffer (50 mM NaF, 5 mM EGTA, and 25 mM Hepes, pH 7.4), disrupted at 4° C. with 150 strokes of a tight-fitting Dounce homogenizer (Fisher Scientific, Pittsburgh, Pa.), and centrifuged for 5 minutes (500 g). The nuclei-free supernate was first incubated for 5 minutes at 4° C. with 30 nM human TNF-α (Genentech, South San Francisco, Calif.) or diluent ( 50 mMHepes, pH 7.4). At time zero, 15 μl of supernate (112 μg per incubation) were added to a reaction mixture containing 30 μl of 25 mM Hepes, pH 7.4, 30 μl of 750 μM ATP, and 75 μl of reaction buffer (50 mM Hepes, pH 7.4 and 20 mM MgCl2) at 22° C. The reaction was terminated with CHCl3 :CH3 OH:HCl (100:100:1, v/v/v) (3, 4, 13) and 150 μl of balanced salt solution (135 mM NaCl, 4.5 mM KCl, 1.5 mM CaCl2, 0.5 mM MgCl2, 5.6 mM glucose, and 10 mM Hepes, pH 7.2) containing 20 mM EDTA. Lipids in the organic phase extract were subjected to alkaline methanolysis to remove glycerophospholipids (4). Sphingomyelin recovery in the nuclei-free supernate was 93% of that in intact cells. A measure of 10^6 cell equivalents of supernate contained 50 μg of protein. Sphingomyelin was resolved by thin-layer chromatograhy (TLC) with CHCl3 :CH3 OH:CH3 COOH:H2 O (25:15:4:1.5 ) as solvent, identified by iodine vapor staining and quantified by liquid scintillation spectrometry (1, 8, 56). Ceramide was quantified with the diacyglycerol kinase reaction (4, 57). Values (mean) are derived from triplicate determinations from one experiment representative of three similar studies for sphingomyelin and four similar studies for ceramide.
(§2) The binding of TNF-α to its receptor is detectable within 2 minutes and maximal by 5 to 10 minutes at 4° C. in membranes derived from HL-60 cells (41). Therefore, supernates from HL-60 cells, collected after a low-speed centrifugation to remove nuclei, were first incubated with TNF-α for 5 minutes at 4° C. to allow the formation of TNF-receptor complexes. Thereafter, reactions were initiated by warming supernates to 22° C. in a reaction mixture containing adenosine triphosphate (ATP) and Mg^2+ at pH 7.4.
These conditions were adopted to allow for activation of neutral sphingomyelinase (1, 42). Under these conditions, TNF-α induced a time- and concentration-dependent reduction in sphingomyelin content (FIG. 9A). the effect of TNF-α was evident at 1 minute and maximal by 7.5 minutes. Sphingomyelin concentrations decreased 27% from a control concentration of 10.4±0.5 (mean ± SEM) to 7.6±0.2 nmol per milligram (nmol mg^-1) of supernate protein (P<0.001). […] Concentrations of TNF-α of 300 pM were ineffective, with a maximal effect at 3 nMTNF-α [effective dose (ED50)≈500 pM]. Under the same conditions, ceramide increased quantitatively from 1.8±0.3 to 4.0±0.5 nmol mg^-1 (FIG. 9B). This effect was detectable at 1 minute (P<0.001) and maximal by 7.5 minutes. Thus, 2.8 nmol of sphingomyelin per milligram of supernate protein were lost for each 2.2 nmol of ceramide per milligram of supernate protein that was generated. […] Other choline-containing lipids, including phosphatidyl-choline, lysophosphatidylcholine, sphingosylphosphorylcholine(1), and 1,2-diacylglycerol were not affected by TNF-α.

[2] = tested on: ceramide (HL-60 nuclei-free supernate); test: Ceramide content in HL-60 cell-free system; assay type: biochemical, human
Procedure: as §1, §2
These conditions were adopted to allow for activation of neutral sphingomyelinase (1, 42). […] Under the same conditions, ceramide increased quantitatively from 1.8±0.3 to 4.0±0.5 nmol mg^-1 (FIG. 9B). […]

[3] = tested on: ceramide-activated protein kinase; test: Ceramide-activated protein kinase activity in HL-60 cell-free system; assay type: biochemical, human
Procedure: HL-60 cells were incubated in serum-free medium and homogenized (as in FIGS. 9A and 9B). […] ATP (750 μM, 4000 dpm pmol^-1), and 75 μl of reaction buffer (40). The reaction was terminated by adding 30 μl of 0.5M ATP in 90% formic acid. Phosphorylated peptide was first run on a C18 Sep-Pak cartridge, then resolved by C18 reverse-phase HPLC (Waters, Milford, Mass.), with a linear gradient of acetonitrile. The peptide eluted at 30% acetonitrile, as determined by monitoring Cerenkov radiation in 1-ml fractions. Background activity was subtracted from each point. (FIG. 10A) Kinetics of TNF-α (30 nM)-stimulated EGFR peptide phosphorylation. Values (mean) represent data from four experiments. (FIG. 10B) Concentration dependence of EGFR peptide phosphorylation at 5 minutes of stimulation with TNF-α (0.01 to 30 nM). Values (mean) represent data derived from duplicate points in two experiments. The SEM of the values in (FIG. 10A) was 18% and the mean range of values in (FIG. 10B) was 3%.
Peptide phosphorylation was measured as in FIGS. 10A nad 10B. Control value represents peptide phosphorylation in the absence of phospholipases or TNF-α. Values (mean ± SEM) represent data derived from duplicate samples in three experiments. *P<0.001 compared to control.
as §2
The effect of TNF-α on ceramide-activated protein kinase activity was assessed. […] For studies assessing the effect of TNFα in broken cell preparations, nuclei-free supernates were incubated under conditions sufficient for stimulation of neutral sphingomyelinase in a reaction mixture that also contained EGFR peptide and γ-^32 P-labeled ATP. Phosphorylated peptide was resolved by high-performance liquid chromatograph (HPLC) and quantified by Cerenkov counting (40). Kinase activity was calculated from the specific activity of [γ-^32 P] ATP and incorporation of ^32 P into EGFR peptide. Background activity was subtracted from each point. […] If the initial incubation with TNF-α at 4° C. was omitted and TNF was added directly to the reaction mixture at 22° C., the reaction was delayed. […] TNF-α enhanced kinase activity in a concentration-dependent manner at 5 minutes (FIG. 10B). […] This is similar to the ED50 of 200 pM for stimulation of ceramide-activated protein kinase by TNF-α in intact cells (40). TNF-α enhanced kinase activity in a total of 20 separate studies.
Control activity reflects several TNF-α-independent protein kinases that are known to phosphorylate EGFR peptide on Thr^669.

[4] = tested on: phosphatidyl-choline, lysophosphatidylcholine, sphingosylphosphorylcholine, 1,2-diacylglycerol; test: Other choline-containing lipids and diacylglycerol in HL-60 cell-free system; assay type: biochemical, human; conditions: TNF-α
[5] = tested on: ceramide-activated protein kinase
[6] = tested on: ceramide-activated protein kinase; conditions: cited from earlier work
HL-60 cells [7] = conditions: cited from earlier work
HL-60 cells [8] = conditions: cited from earlier work; remark: listed apart in the source

TNF-α
concentration for maximal effect on sphingomyelin ([1]; TNF-α): 3 nM
effective dose (ED50), sphingomyelin reduction ([1]; TNF-α): ≈ 500 pM
sphingomyelin lost ([1]; TNF-α): 2.8 nmol per milligram of supernat
time at which sphingomyelin reduction was evident ([1]; TNF-α): 1 min
time to maximal sphingomyelin reduction ([1]; TNF-α): ≤ 7.5 min
decrease in sphingomyelin concentration ([1]; TNF-α, P<0.001): 27%
sphingomyelin concentration after TNF-α ([1]; mean ± SEM, control 10.4±0.5, P<0.001): 7.6±0.2 nmol per milligram (nmol mg^-1) of supernate protein
ceramide generated ([2]; TNF-α): 2.2 nmol per milligram of supernat
time to maximal ceramide increase ([2]; TNF-α): ≤ 7.5 min
time at which ceramide increase was detectable ([2]; TNF-α, P<0.001): 1 min
ceramide concentration after TNF-α ([2]; from 1.8±0.3): 4.0 ± 0.5 nmol/mg
delay before enhancement of kinase activity ([3]; TNF added directly at 22° C., no 4° C. incubation): 2 min
duration of stimulation of kinase activity ([3]; TNF-α 30 nM): at least 10 minutes
time at which stimulation of kinase activity was evident ([3]; TNF-α 30 nM): evident by i minute
effect on kinase activity (in words) ([3]; TNF-α 30 nM, GTP, GTP-γ-S 0.25 to 200 μM, SMase 1×10^-3 U ml^-1, 5 minutes, phospholipases 40- to 400-fold higher): enhanced kinase activity (P<0.001)
concentration for maximal effect ([3]; TNF-α, 5 minutes): 3 nM
effective concentration ([3]; TNF-α, 5 minutes): 10 pM
ED50 for kinase activity ([3]; TNF-α, 5 minutes, cell-free): ≈ 300 pM
effect on phosphatidyl-choline, lysophosphatidylcholine, sphingosylphosphorylcholine and 1,2-diacylglycerol [4]: not affected
increase in kinase activity ([5]; TNF-α 3 pM, 60 minutes): 1.1 -fold of control
increase in kinase activity ([5]; TNF-α 30 nM, 5 minutes): 1.5 -fold of control
maximal effect on kinase activity ([5]; TNF-α 30 nM, 60 minutes): 1.8 -fold of control
increase in kinase activity ([5]; TNF-α 30 nM, 2 hours): 2.2 -fold of control
increase in kinase activity ([5]; TNF-α 30 nM, 2 hours, listed as TNF): 2 -fold of control
ED50 for kinase activity ([5]; TNF-α, 60 minutes, intact cells): ≈ 200 pM
effect on kinase activity (in words) ([6]; intact HL-60 cells): rapidly increased; also recorded: similarly enhanced kinase activity in intact cells
ED50 for stimulation of ceramide-activated protein kinase ([6]; intact cells): 200 pM
maximally effective concentration for generation of ceramide (HL-60 cells [7]; also for monocyte differentiation): 30 nM
sphingomyelin degradation to ceramide / ceramide level (in words) (HL-60 cells [7]): increase cellular levels of ceramide within minutes; also recorded: activates a neutral sphingomyelinase to generate ceramide
sphingomyelin degradation to ceramide / ceramide level (in words) (HL-60 cells [7]; listed as Tumor necrosis factor (TNF) α): stimulate sphingomyelin degradation to ceramide
monocytic differentiation (HL-60 cells [8]): induce monocytic differentiation

From patent US5451518A, “Purified human ceramide-activated protein kinase” (Sloan-Kettering Institute for Cancer Research, priority 1992, dated 1995)
